In the supplement of paper PMC3974653:
Where a name gives a salt, the structure may show the parent alone.

System: MTT (mouse pheochromocytoma)
Assay: IC50 of cell viability (ATP content)
Details: (24 or 48 h)
Method in brief: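 Cells of the MTT mouse pheochromocytoma line, 5 µl per well at 200,000 cells/ml, were grown overnight at 37°C, 5% CO2 in white 1536-well plates with DMEM, 5% FBS and 1% horse serum. Pintool transfer then delivered 23 nl of library compound in DMSO, giving 8 final concentrations from 0.5 nM to 46 µM, for an exposure of 24 or 48 hrs. Luminescence from CellTiter-Glo was read after 15 minutes and referenced to positive-control wells (100%) and DMSO wells (0%). IC50 was calculated with a four-parameter logistic fit.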

Row | Structure (SMILES) | IC50 of cell viability
1 | CC(=O)Nc1ccccc1 [Acetanilide] | > 46 µM
2 | CC(=O)Nc1nnc([S+](N)(=O)[O-])s1 [Acetazolamide] | > 46 µM
3 | CC(=O)c1ccc([S+](=O)([O-])NC(=O)NC2CCCCC2)cc1 [Acetohexamide] | > 46 µM
4 | CC(C)=O [Acetone] | > 46 µM
5 | CC(=O)c1ccc2c(c1)N(CCCN(C)C)c1ccccc1S2 [Acetopromazine maleate salt] | > 46 µM
6 | CO[C@@H]1[C@@H](OC2OC(C)C(OC3CC(C)(O)C(O)C(C)O3)C(N(C)C)C2O)[C@@H](CC=O)C[C@@H](C)[C@@H](OC2CCC(N(C)C)C(C)O2)/C=C/C=C/C[C@@H](C)OC(=O)C[C@H]1OC(C)=O (stereo not given in full) [Acetyl Spiramycin] | > 46 µM
7 | CC(=O)OCC[N+](C)(C)C [Acetylcholine chloride] | > 46 µM
8 | CC(=O)Oc1ccccc1C(=O)O [Acetylsalicylic acid] | > 46 µM
9 | CCC(Cc1c(I)cc(I)c(O)c1I)C(=O)O (stereo not given) [Acide iophenoique] | > 46 µM
10 | O=C(O)c1ccc[n+]([O-])c1 [Acide oxiniacique] | > 46 µM
11 | O=P([O-])(O)C(O)(Cc1cccnc1)P(=O)([O-])O [Acide risedronique] | > 46 µM
12 | O=C([O-])c1cc(Oc2ccc(C(F)(F)F)cc2Cl)ccc1[N+](=O)[O-] [Acifluorfen sodium] | > 46 µM
13 | CC1(O\C(=C/C1=O)C(O)=O)C2=CC=CC=C2 (stereo not given) [Acifran] | > 46 µM
14 | O=C(O)C(=O)Nc1cccc(-c2nnn[nH]2)c1 [Acitazanolast] | > 46 µM
15 | CC(=O)O[C@@H](C)C(=O)OCC[N+](C)(C)C.CC(=O)O[C@@H](C)C(=O)OCC[N+](C)(C)C.O=S(=O)([O-])c1cccc2c(S(=O)(=O)[O-])cccc12 [Aclatonium Napadisilate] | > 46 µM
16 | CC(=O)O[C@@H](C)C(=O)OCC[N+](C)(C)C.CC(=O)O[C@@H](C)C(=O)OCC[N+](C)(C)C.O=S(=O)([O-])c1cccc2c(S(=O)(=O)[O-])cccc12 [Aclatonium napadisilate] | > 46 µM
17 | O=C(O)COc1ccccc1/C=N/NC(=O)c1ccncc1 [Aconiazida] | > 46 µM
18 | CC(=O)OCC(=O)Nc1cc(C#N)cc(NC(=O)COC(C)=O)c1Cl [Acreozast] | > 46 µM
19 | Cc1ccc(/C(=C\CN2CCCC2)c2cccc(/C=C/C(=O)O)n2)cc1 [Acrivastine] | > 46 µM
20 | CC(=O)Nc1ccc(CC(=O)O)cc1 [Actarit] | > 46 µM
21 | CCOc1ccc(S(=O)(=O)O)c2cccnc12 [Actinoquinolum] | > 46 µM
22 | N\C1=N\C2=C(N=C[N]2COCCO)C(=O)N1 [Acyclovir] | > 46 µM
23 | O=C(COc1ccc(Cl)cc1)OCCNC12C[C@H]3C[C@@H](C1)C[C@@H](C2)C3 [Adafenoxate] | > 46 µM
24 | COc1ccc(-c2ccc3cc(C(=O)O)ccc3c2)cc1C12CC3CC(CC(C3)C1)C2 [Adapalene] | > 46 µM
25 | Nc1ncnc2c1ncn2CCOCP(=O)(O)O [Adefovir] | > 46 µM
26 | Nc1ncnc2c1ncn2[C@@H]1O[C@@H]2COP(=O)(O)O[C@H]2[C@H]1O [Adenosine 3',5'-cyclic monophosphate] | > 46 µM
27 | O=S([O-])CNc1ccc([S+](=O)([O-])c2ccc(NCS(=O)[O-])cc2)cc1 [Adesulfone sodium] | > 46 µM
28 | O=C(O)CCCCC(=O)O [Adipic acid] | > 46 µM
29 | CNCC(=O)c1ccc(O)c(O)c1 [Adrenone] | > 46 µM
30 | COc1cccc2c1C(=O)c1c(O)c3c(c(O)c1C2=O)C[C@](O)(C(=O)CO)C[C@@H]3O[C@H]1C[C@H](N)[C@@H](O)[C@H](C)O1 [Adriamycin-DNA hydrochloride] | > 46 µM
